These results are taken from patent US7754741B2, “Pyridine derivatives as fungicidal compounds” (Bayer Cropscience S.A., priority 2003, dated 2010).

SMILES strings stand for the structures. Some results are limits rather than exact numbers.

The test system of one experiment is Alternaria brassicae. In words: In vivo test on Alternaria brassicae (leaf spot of crucifers). The following applies: Alternaria brassicae; dose 330 ppm; radish plants sprayed 24 hours before contamination; grading 6 to 7 days after contamination vs control plants; read-out: protection (good (at least 50%) to total). Here is the method:
In Vivo Test on Alternaria brassicae (Leaf Spot of crucifers)
(§1) The active ingredient tested is prepared by potter homogenisation in a concentrated suspension type formulation at 100 g/l. This suspension is then diluted with water to obtain the desired active material concentration.
Radish plants (Pernot variety) in starter cups, sown on a 50/50 peat soil-pozzolana substrate and grown at 18-20° C., are treated at the cotyledon stage by spraying with the aqueous suspension described above.
Plants, used as controls, are treated with an aqueous solution not containing the active material.
After 24 hours, the plants are contaminated by spraying them with an aqueous suspension of Alternaria brassicae spores (40,000 spores per cm^3). The spores are collected from a 12-13-day-old culture.
The contaminated radish plants are incubated for 6-7 days at about 18° C., under a humid atmosphere.
Grading is carried out 6 to 7 days after the contamination, in comparison with the control plants.

The next experiment concerns Pyrenophora teres. In words: In vivo test on Pyrenophora teres (barley net blotch). The following applies: Pyrenophora teres, 288 h; dose 330 ppm; barley plants sprayed 24 hours before contamination; grading 12 days after contamination vs control plants; read-out: protection (good (at least 50%) to total). As to the method:
In Vivo Test on Pyrenophora teres (Barley Net Blotch)
as §1
Barley plants (Express variety) in starter cups, sown on a 50/50 peat soil-pozzolana substrate and grown at 12° C., are treated at the 1-leaf stage (10 cm tall) by spraying with the aqueous suspension described above. Plants, used as controls, are treated with an aqueous solution not containing the active material.
After 24 hours, the plants are contaminated by spraying them with an aqueous suspension of Pyrenophora teres spores (12,000 spores per ml). The spores are collected from a 12-day-old culture The contaminated barley plants are incubated for 24 hours at about 20° C. and at 100% relative humidity, and then for 12 days at 80% relative humidity.

`Cc1ccoc1C(=O)NCCc1ncc(C(F)(F)F)cc1Cl` [Compound A-3]: the pest or weed control at 330 ppm in the experiment on Alternaria brassicae is at least 50%.

As to `O=C(NCCc1ncc(C(F)(F)F)cc1Cl)c1cc(-c2ccc(Cl)cc2)oc1C(F)(F)F` [Compound B-2], the pest or weed control at 330 ppm in the experiment on Alternaria brassicae is at least 50%.

`O=C(NCCc1ncc(C(F)(F)F)cc1Cl)c1ccoc1` [Compound B-3]: in the experiment on Pyrenophora teres, the pest or weed control at 330 ppm is at least 50%.

Take `Cc1oc(-c2ccccc2)cc1C(=O)NCCc1ncc(C(F)(F)F)cc1Cl` [Compound B-5]: the pest or weed control at 330 ppm with Alternaria brassicae is at least 50%.

Regarding `O=C(NCCc1ncc(C(F)(F)F)cc1Cl)c1cc(-c2cccc(Cl)c2)oc1C(F)(F)F` [Compound B-9], the pest or weed control at 330 ppm in the experiment on Alternaria brassicae is at least 50%.

`O=C(NCCc1ncc(C(F)(F)F)cc1Cl)c1cc(-c2ccccc2)oc1C(F)(F)F` [Compound B-10]: the pest or weed control at 330 ppm with Alternaria brassicae is at least 50%.

For `O=C(c1ccoc1I)N(CCc1ncc(C(F)(F)F)cc1Cl)C1CC1` [Compound B-15], the pest or weed control at 330 ppm in the experiment on Pyrenophora teres was at least 50%.

Take `Cc1cc(C(=O)NCCc2nc(C)c(Cl)cc2Cl)c(C)o1` [Compound B-16]: the pest or weed control at 330 ppm with Alternaria brassicae and in the experiment with Pyrenophora teres was at least 50% each time.

Take `O=C(NCCc1ncc(C(F)(F)F)cc1Cl)c1sccc1Br` [Compound C-5]: the pest or weed control at 330 ppm in the experiment with Alternaria brassicae and with Pyrenophora teres was at least 50% each time.

With `O=C(NCCc1ncc(C(F)(F)F)cc1Cl)c1ccc(-c2ccccn2)s1` [Compound C-6], the pest or weed control at 330 ppm in the experiment on Alternaria brassicae is at least 50%.

As to `CS(=O)(=O)c1csc(C(=O)NCCc2ncc(C(F)(F)F)cc2Cl)c1Cl` [Compound C-8], the pest or weed control at 330 ppm in the experiment on Alternaria brassicae is at least 50%.

Take `O=C(NCCc1ccc(Cl)cn1)c1sccc1I` [Compound C-17]: in the experiment with Pyrenophora teres, the pest or weed control at 330 ppm is at least 50%.

Regarding `O=C(NCCc1nc(Cl)ccc1Cl)c1sccc1I` [Compound C-18], the pest or weed control at 330 ppm in the experiment with Alternaria brassicae was at least 50%.

In the case of `O=C(c1sccc1I)N(CCc1ncc(C(F)(F)F)cc1Cl)C1CC1` [Compound C-20], the pest or weed control at 330 ppm in the experiment on Pyrenophora teres was at least 50%.

`Cc1nc(CCNC(=O)c2sccc2I)c(Cl)cc1Cl` [Compound C-21]: in the experiment on Alternaria brassicae, the pest or weed control at 330 ppm is at least 50%.

For the molecule `O=C(NCCc1nc(F)c(Cl)cc1Cl)c1sccc1I` [Compound C-22], the pest or weed control at 330 ppm with Pyrenophora teres is at least 50%.

With `O=C(NCCc1nc(F)c(Cl)cc1F)c1sccc1I` [Compound C-23], the pest or weed control at 330 ppm in the experiment with Alternaria brassicae and in the experiment on Pyrenophora teres was at least 50% throughout.

Consider `Cn1ccc(I)c1C(=O)NCCc1ncc(C(F)(F)F)cc1Cl` [Compound F-3], for which the pest or weed control at 330 ppm in the experiment with Alternaria brassicae and with Pyrenophora teres was at least 50% in each case.

`O=C(NCCc1ncc(C(F)(F)F)cc1Cl)c1ncoc1-c1ccccc1` [Compound G-1]: the pest or weed control at 330 ppm in the experiment with Alternaria brassicae and with Pyrenophora teres was at least 50% in each case.

In the case of `Cc1cc(C(=O)NCCc2ncc(C(F)(F)F)cc2Cl)nn1C(C)(C)C` [Compound I-1], the pest or weed control at 330 ppm with Alternaria brassicae and in the experiment with Pyrenophora teres was at least 50% each time.

Turning to `O=C(NCCc1ncc(C(F)(F)F)cc1Cl)c1cnn(-c2ccccc2)c1C(F)(F)F` [Compound J-4], the pest or weed control at 330 ppm with Alternaria brassicae was at least 50%.

Turning to `O=C(NCCc1ncc(C(F)(F)F)cc1Cl)c1cnn(-c2ccc(Cl)cc2)c1C(F)(F)F` [Compound J-5], the pest or weed control at 330 ppm in the experiment on Alternaria brassicae was at least 50%.

Regarding `Cn1ncc(C(=O)NCCc2ncc(C(F)(F)F)cc2Cl)c1Cl` [Compound J-6], the pest or weed control at 330 ppm with Alternaria brassicae was at least 50%.

Consider `Cc1c(C(=O)NCCc2ncc(C(F)(F)F)cc2Cl)cnn1-c1ccc(F)cc1` [Compound J-7], for which the pest or weed control at 330 ppm in the experiment on Pyrenophora teres was at least 50%.

For the molecule `COc1ccc(-n2ncc(C(=O)NCCc3ncc(C(F)(F)F)cc3Cl)c2C)cc1` [Compound J-8], the pest or weed control at 330 ppm in the experiment on Pyrenophora teres was at least 50%.

As to `Cc1ccccc1-n1ncc(C(=O)NCCc2ncc(C(F)(F)F)cc2Cl)c1C` [Compound J-10], the pest or weed control at 330 ppm in the experiment on Pyrenophora teres was at least 50%.

`CCCc1c(C(=O)NCCc2ncc(C(F)(F)F)cc2Cl)cnn1-c1ccc(Cl)cc1` [Compound J-12]: the pest or weed control at 330 ppm in the experiment with Alternaria brassicae was at least 50%.

In the case of `O=C(NCCc1ncc(C(F)(F)F)cc1Cl)c1cnn(-c2ccc([N+](=O)[O-])cc2)c1C(F)(F)F` [Compound J-13], the pest or weed control at 330 ppm in the experiment on Alternaria brassicae was at least 50%.

In the case of `Cn1cc(C(=O)N(CCc2ncc(C(F)(F)F)cc2Cl)C2CC2)c(C(F)(F)F)n1` [Compound J-23], the pest or weed control at 330 ppm with Pyrenophora teres is at least 50%.

Consider `Cn1cc(C(=O)NCCc2ccc(C(F)(F)F)c(Cl)n2)c(C(F)(F)F)n1` [Compound J-24], for which the pest or weed control at 330 ppm in the experiment with Alternaria brassicae and in the experiment on Pyrenophora teres was at least 50% in each case.

As to `Cc1nc(CCNC(=O)c2cn(C)nc2C(F)(F)F)c(Cl)cc1Cl` [Compound J-25], the pest or weed control at 330 ppm in the experiment with Alternaria brassicae and with Pyrenophora teres was at least 50% throughout.

In the case of `Cn1cc(C(=O)NCCc2nc(F)c(Cl)cc2Cl)c(C(F)(F)F)n1` [Compound J-26], the pest or weed control at 330 ppm in the experiment on Alternaria brassicae and in the experiment with Pyrenophora teres was at least 50% in each case.

In the case of `Cn1cc(C(=O)NCCc2ccc(Cl)cn2)c(C(F)F)n1` [Compound J-36], the pest or weed control at 330 ppm with Alternaria brassicae and in the experiment on Pyrenophora teres was at least 50% in each case.

For `CC(C)ON=CCc1cnc(CCNC(=O)c2cn(C)nc2C(F)F)c(Cl)c1` [Compound J-38], in the experiment on Alternaria brassicae, the pest or weed control at 330 ppm was at least 50%.

As to `Cc1nn(C)c(F)c1C(=O)NCCc1ncc(Cl)cc1F` [Compound J-49], the pest or weed control at 330 ppm with Alternaria brassicae and in the experiment with Pyrenophora teres was at least 50% in each case.

Turning to `Cc1nn(C)c(F)c1C(=O)NCCc1nc(Cl)c(Cl)cc1Cl` [Compound J-50], the pest or weed control at 330 ppm with Alternaria brassicae and in the experiment on Pyrenophora teres was at least 50% throughout.

As to `Cc1nn(C)c(F)c1C(=O)N(CCc1ncc(C(F)(F)F)cc1Cl)C1CC1` [Compound J-52], the pest or weed control at 330 ppm in the experiment on Alternaria brassicae and with Pyrenophora teres was at least 50% throughout.

`Cn1cc(C(=O)NCCc2ncc(C(F)(F)F)cc2Cl)c(C(F)(F)F)n1` [Compound J-54]: the pest or weed control at 330 ppm in the experiment on Pyrenophora teres was at least 50%.

With `CC(C)(C)c1cc(C(=O)NCCc2ncc(C(F)(F)F)cc2Cl)n(Cc2ccccc2)n1` [Compound K-3], in the experiment with Alternaria brassicae, the pest or weed control at 330 ppm was at least 50%.

With `O=C(NCCc1ncc(C(F)(F)F)cc1Cl)c1ccnn1-c1ccccc1` [Compound K-5], the pest or weed control at 330 ppm in the experiment on Alternaria brassicae is at least 50%.

Regarding `CCn1nc(C)c(Br)c1C(=O)NCCc1ncc(C(F)(F)F)cc1Cl` [Compound K-6], the pest or weed control at 330 ppm in the experiment on Alternaria brassicae and with Pyrenophora teres was at least 50% in each case.

Regarding `Cc1noc(C)c1C(=O)NCCc1ncc(C(F)(F)F)cc1Cl` [Compound M-2], in the experiment on Alternaria brassicae, the pest or weed control at 330 ppm is at least 50%.

Take `Cc1onc(-c2ccccc2Cl)c1C(=O)NCCc1ncc(C(F)(F)F)cc1Cl` [Compound M-4]: the pest or weed control at 330 ppm in the experiment on Alternaria brassicae and with Pyrenophora teres was at least 50% throughout.

With `O=C(NCCc1ncc(C(F)(F)F)cc1Cl)c1ccno1` [Compound N-1], in the experiment with Alternaria brassicae, the pest or weed control at 330 ppm was at least 50%.

For `Cc1nn(-c2ccccc2)nc1C(=O)NCCc1ncc(C(F)(F)F)cc1Cl` [Compound O-1], the pest or weed control at 330 ppm with Alternaria brassicae was at least 50%.

For `Cc1nnsc1C(=O)NCCc1ncc(C(F)(F)F)cc1Cl` [Compound P-1], the pest or weed control at 330 ppm in the experiment on Pyrenophora teres is at least 50%.

Turning to `O=C(NCCc1ncc(C(F)(F)F)cc1Cl)c1ncc(C(F)(F)F)cc1Cl` [Compound Q-1], the pest or weed control at 330 ppm in the experiment on Alternaria brassicae is at least 50%.

`O=C(NCCc1ncc(C(F)(F)F)cc1Cl)c1nc(Cl)ccc1Cl` [Compound Q-2]: the pest or weed control at 330 ppm with Alternaria brassicae was at least 50%.

Take `O=C(NCCc1ncc(C(F)(F)F)cc1Cl)c1cccnc1` [Compound R-5]: the pest or weed control at 330 ppm in the experiment with Alternaria brassicae was at least 50%.

As for `O=C(NCCc1ncc(C(F)(F)F)cc1Cl)c1cccnc1Sc1ccccc1` [Compound R-6], in the experiment on Alternaria brassicae, the pest or weed control at 330 ppm was at least 50%.

Consider `O=C(NCCc1ncc(C(F)(F)F)cc1Cl)c1cccnc1Oc1ccc(Cl)cc1` [Compound R-7], for which, in the experiment on Alternaria brassicae, the pest or weed control at 330 ppm is at least 50%.

For `Cc1nc(C(F)(F)F)ccc1C(=O)NCCc1ncc(C(F)(F)F)cc1Cl` [Compound R-15], the pest or weed control at 330 ppm with Alternaria brassicae and with Pyrenophora teres was at least 50% each time.

With `Cc1cc(C(=O)NCCc2ncc(C(F)(F)F)cc2Cl)cc(Cl)n1` [Compound S-2], the pest or weed control at 330 ppm with Alternaria brassicae and in the experiment with Pyrenophora teres was at least 50% throughout.

In the case of `O=C(NCCc1ncc(C(F)(F)F)cc1Cl)c1ccnc(Cl)c1` [Compound S-5], the pest or weed control at 330 ppm with Alternaria brassicae was at least 50%.
